In ChEMBL document CHEMBL1145206, “Design, synthesis and structure-activity relationships of novel taxane-based multidrug resistance reversal agents” (2005):

Test system: MDA-MB-435
Experiment: MDR-reversal activity evaluated against the resistant human breast tumor cell line MDA-435/LCC6-MDR
Format: functional
Design: concentration or dose not given beside the values

Question: For CC(=O)O[C@H]1C(=O)[C@]2(C)[C@@H](OC(=O)/C=C/c3ccc(OC(=O)c4cc5ccccc5[nH]4)cc3)C[C@H]3OC[C@@]3(OC(C)=O)[C@H]2[C@H](OC(=O)c2ccccc2)[C@]23OC(=O)O[C@H]2[C@H](OC(C)=O)C(C)=C1C3(C)C, which Reduction is on record?
Answer: 43%

Question: With CC(=O)O[C@H]1C[C@@]2(O)[C@@H](OC(=O)c3ccccc3)[C@@H]3[C@]4(OC(C)=O)CO[C@@H]4C[C@H](OC(C)=O)[C@@]3(C)C(=O)[C@H](OC(=O)/C=C/c3ccc(C(=O)Oc4ccccc4)cc3)C(=C1C)C2(C)C as the compound, how does the Reduction read?
Answer: 24%

Question: Which Reduction does the source give for COc1ccc(C(=O)Oc2ccc(/C=C/C(=O)O[C@H]3C[C@H]4OC[C@@]4(OC(C)=O)[C@H]4[C@H](OC(=O)c5ccccc5)[C@]56OC(=O)O[C@H]5[C@H](OC(C)=O)C(C)=C([C@@H](OC(C)=O)C(=O)[C@]34C)C6(C)C)cc2)cc1 here?
Answer: 69%

Question: With CC(=O)O[C@H]1C(=O)[C@]2(C)[C@@H](OC(=O)CCc3ccc(Cc4ccccc4)cc3)C[C@H]3OC[C@@]3(OC(C)=O)[C@H]2[C@H](OC(=O)c2ccccc2)[C@]2(O)C[C@H](OC(C)=O)C(C)=C1C2(C)C as the compound, how does the Reduction read?
Answer: 16%

Question: For CC(=O)O[C@H]1C(=O)[C@]2(C)[C@@H](OC(=O)CC3c4ccccc4-c4ccccc43)C[C@H]3OC[C@@]3(OC(C)=O)[C@H]2[C@H](OC(=O)c2ccccc2)[C@]2(O)C[C@H](OC(C)=O)C(C)=C1C2(C)C, which Reduction is on record?
Answer: 67%

Question: CC(=O)O[C@H]1C(=O)[C@]2(C)[C@@H](OC(=O)CCc3ccc4c(c3)C(=O)c3ccccc3C4=O)C[C@H]3OC[C@@]3(OC(C)=O)[C@H]2[C@H](OC(=O)c2ccccc2)[C@]2(O)C[C@H](OC(C)=O)C(C)=C1C2(C)C was tested. Which Reduction did it give?
Answer: 29%

Question: With CC(=O)O[C@@]12CO[C@@H]1C[C@H](O)[C@@]1(C)C(=O)[C@H](O)C3=C(C)[C@@H](OC(=O)CCc4ccc5ccccc5c4)C[C@@](O)([C@@H](OC(=O)c4ccccc4)[C@H]21)C3(C)C as the compound, how does the Reduction read?
Answer: 37%

Question: Which Reduction does the source give for CC(=O)O[C@H]1C(=O)[C@]2(C)[C@@H](OC(=O)/C=C/c3ccc(OC(=O)c4ccccc4)cc3)C[C@H]3OC[C@@]3(OC(C)=O)[C@H]2[C@H](OC(=O)c2ccccc2)[C@]2(O)C[C@H](OC(C)=O)C(C)=C1C2(C)C here?
Answer: 91%

Question: How did the Reduction turn out when CC(=O)O[C@H]1C(=O)[C@]2(C)[C@@H](OC(=O)c3cnc4ccccc4c3)C[C@H]3OC[C@@]3(OC(C)=O)[C@H]2[C@H](OC(=O)c2ccccc2)[C@]2(O)C[C@H](OC(C)=O)C(C)=C1C2(C)C was run?
Answer: 41%

Question: With COc1cccc(C(=O)O[C@H]2[C@@H]3[C@]4(OC(C)=O)CO[C@@H]4C[C@H](OC(=O)/C=C/c4ccc(C(=O)c5ccccc5)cc4)[C@@]3(C)C(=O)[C@H](OC(C)=O)C3=C(C)[C@@H](OC(C)=O)C[C@]2(O)C3(C)C)c1 as the compound, how does the Reduction read?
Answer: 95%

Question: For CC(=O)O[C@H]1C(=O)[C@]2(C)[C@@H](OC(=O)/C=C/c3ccc(OC(=O)c4ccc([N+](=O)[O-])cc4)cc3)C[C@H]3OC[C@@]3(OC(C)=O)[C@H]2[C@H](OC(=O)c2ccccc2)[C@]23OC(=O)O[C@H]2[C@H](OC(C)=O)C(C)=C1C3(C)C, which Reduction is on record?
Answer: 27%

Question: With CC(=O)O[C@H]1C[C@@]2(O)[C@@H](OC(=O)c3ccccc3)[C@@H]3[C@]4(OC(C)=O)CO[C@@H]4C[C@H](OC(=O)/C=C/c4ccc(C(=O)c5ccccc5)cc4)[C@@]3(C)C(=O)[C@H](OC(=O)/C=C/c3ccccc3)C(=C1C)C2(C)C as the compound, how does the Reduction read?
Answer: 11%

Question: For CC(=O)O[C@@]12CO[C@@H]1C[C@H](O)[C@@]1(C)C(=O)[C@H](O)C3=C(C)[C@@H](OC(=O)/C=C/c4ccc(C(=O)c5ccccc5)cc4)C[C@@](O)([C@@H](OC(=O)c4ccccc4)[C@H]21)C3(C)C, which Reduction is on record?
Answer: 0%

Question: For COC(=O)O[C@H]1C(=O)[C@]2(C)[C@@H](OC(=O)/C=C/c3ccc(C(=O)c4ccccc4)cc3)C[C@H]3OC[C@@]3(OC(C)=O)[C@H]2[C@H](OC(=O)c2ccccc2)[C@]2(O)C[C@H](OC(C)=O)C(C)=C1C2(C)C, which Reduction is on record?
Answer: 91%

Question: With CC(=O)O[C@H]1C(=O)[C@]2(C)[C@@H](OC(=O)Cc3ccc(C(=O)c4ccccc4)cc3)C[C@H]3OC[C@@]3(OC(C)=O)[C@H]2[C@H](OC(=O)c2ccccc2)[C@]23OC(=O)O[C@H]2[C@H](OC(C)=O)C(C)=C1C3(C)C as the compound, how does the Reduction read?
Answer: 44%

Question: CC(=O)O[C@H]1C(=O)[C@]2(C)[C@@H](OC(=O)/C=C/c3ccc(C(=O)c4ccccc4)cc3)C[C@H]3OC[C@@]3(OC(C)=O)[C@H]2[C@H](OC(=O)C2CCCCC2)[C@]2(O)C[C@H](OC(C)=O)C(C)=C1C2(C)C was tested. Which Reduction did it give?
Answer: 86%

Question: How did the Reduction turn out when COc1ccccc1C(=O)Oc1ccc(/C=C/C(=O)O[C@H]2C[C@H]3OC[C@@]3(OC(C)=O)[C@H]3[C@H](OC(=O)c4ccccc4)[C@]4(O)C[C@H](OC(C)=O)C(C)=C([C@@H](OC(C)=O)C(=O)[C@]23C)C4(C)C)cc1 was run?
Answer: 57%

Question: Which Reduction does the source give for CC(=O)O[C@H]1C(=O)[C@]2(C)[C@@H](OC(=O)/C=C/c3ccc(C(=O)c4ccccc4)cc3)C[C@H]3OC[C@@]3(OC(C)=O)[C@H]2[C@H](OC(=O)c2ccccc2)[C@]23OC(=O)O[C@H]2[C@H](OC(C)=O)C(C)=C1C3(C)C here?
Answer: 94%

Question: With CC(=O)O[C@H]1C(=O)[C@]2(C)[C@@H](OC(=O)/C=C/c3ccc(OC(=O)c4ccc(Br)cc4)cc3)C[C@H]3OC[C@@]3(OC(C)=O)[C@H]2[C@H](OC(=O)c2ccccc2)[C@]23OC(=O)O[C@H]2[C@H](OC(C)=O)C(C)=C1C3(C)C as the compound, how does the Reduction read?
Answer: 34%

Question: For CC(=O)O[C@H]1C(=O)[C@]2(C)[C@@H](OC(=O)/C=C/c3ccc(OC(=O)c4ccc(O)cc4)cc3)C[C@H]3OC[C@@]3(OC(C)=O)[C@H]2[C@H](OC(=O)c2ccccc2)[C@]2(O)C[C@H](OC(C)=O)C(C)=C1C2(C)C, which Reduction is on record?
Answer: 24%

Question: CC(=O)O[C@H]1C(=O)[C@]2(C)[C@@H](OC(=O)/C=C/c3ccc(Sc4ccccc4)cc3)C[C@H]3OC[C@@]3(OC(C)=O)[C@H]2[C@H](OC(=O)c2ccccc2)[C@]2(O)C[C@H](OC(C)=O)C(C)=C1C2(C)C was tested. Which Reduction did it give?
Answer: 64%

Question: CC(=O)O[C@H]1C(=O)[C@]2(C)[C@@H](OC(=O)c3ccc(C(=O)c4ccccc4)cc3)C[C@H]3OC[C@@]3(OC(C)=O)[C@H]2[C@H](OC(=O)c2ccccc2)[C@]23OC(=O)O[C@H]2[C@H](OC(C)=O)C(C)=C1C3(C)C was tested. Which Reduction did it give?
Answer: 92%

Question: CC(=O)O[C@H]1C(=O)[C@]2(C)[C@@H](OC(=O)/C=C/c3ccc(C(=O)Oc4ccccc4)cc3)C[C@H]3OC[C@@]3(OC(C)=O)[C@H]2[C@H](OC(=O)c2ccccc2)[C@]23OC(=O)O[C@H]2[C@H](OC(C)=O)C(C)=C1C3(C)C was tested. Which Reduction did it give?
Answer: 84%

Question: Which Reduction does the source give for CC(=O)O[C@H]1C[C@@]2(O)[C@@H](OC(=O)c3ccccc3)[C@@H]3[C@]4(OC(C)=O)CO[C@@H]4C[C@H](OC(C)=O)[C@@]3(C)C(=O)[C@H](OC(=O)/C=C/c3ccc(OC(=O)c4ccccc4)cc3)C(=C1C)C2(C)C here?
Answer: 7%

Question: How did the Reduction turn out when CC(=O)O[C@H]1C[C@@]2(O)[C@@H](OC(=O)c3ccccc3)[C@@H]3[C@]4(OC(C)=O)CO[C@@H]4C[C@H](OC(C)=O)[C@@]3(C)C(=O)[C@H](OC(=O)/C=C/c3ccc(Sc4ccccc4)cc3)C(=C1C)C2(C)C was run?
Answer: 28%

Question: How did the Reduction turn out when CC(=O)O[C@H]1C(=O)[C@]2(C)[C@@H](OC(C)=O)C[C@H]3OC[C@@]3(OC(C)=O)[C@H]2[C@H](OC(=O)CCc2ccc3ccccc3c2)[C@]2(O)C[C@H](OC(C)=O)C(C)=C1C2(C)C was run?
Answer: 24%

Question: Which Reduction does the source give for COc1cccc(C(=O)Oc2ccc(/C=C/C(=O)O[C@H]3C[C@H]4OC[C@@]4(OC(C)=O)[C@H]4[C@H](OC(=O)c5ccccc5)[C@]56OC(=O)O[C@H]5[C@H](OC(C)=O)C(C)=C([C@@H](OC(C)=O)C(=O)[C@]34C)C6(C)C)cc2)c1 here?
Answer: 62%

Question: With CC(=O)O[C@H]1C(=O)[C@]2(C)[C@@H](OC(=O)Cc3ccc(-c4ccccc4)cc3)C[C@H]3OC[C@@]3(OC(C)=O)[C@H]2[C@H](OC(=O)c2ccccc2)[C@]2(O)C[C@H](OC(C)=O)C(C)=C1C2(C)C as the compound, how does the Reduction read?
Answer: 57%

Question: Which Reduction does the source give for CC(=O)O[C@H]1C(=O)[C@]2(C)[C@@H](OC(=O)/C=C/c3ccc(Sc4ccccc4)cc3)C[C@H]3OC[C@@]3(OC(C)=O)[C@H]2[C@H](OC(=O)c2ccccc2)[C@]23OC(=O)O[C@H]2[C@H](OC(C)=O)C(C)=C1C3(C)C here?
Answer: 63%

Question: For CC(=O)O[C@H]1C(=O)[C@]2(C)[C@@H](OC(=O)/C=C/c3ccc(OC(=O)c4ccccc4)cc3)C[C@H]3OC[C@@]3(OC(C)=O)[C@H]2[C@H](OC(=O)c2ccccc2)[C@]23OC(=O)O[C@H]2[C@H](OC(C)=O)C(C)=C1C3(C)C, which Reduction is on record?
Answer: 95%

Question: CC(=O)O[C@H]1C(=O)[C@]2(C)[C@@H](OC(=O)/C=C/c3cccc(NC(=O)c4ccccc4)c3)C[C@H]3OC[C@@]3(OC(C)=O)[C@H]2[C@H](OC(=O)c2ccccc2)[C@]23OC(=O)O[C@H]2[C@H](OC(C)=O)C(C)=C1C3(C)C was tested. Which Reduction did it give?
Answer: 91%

Question: COc1ccc(C(=O)Oc2ccc(/C=C/C(=O)O[C@H]3C[C@H]4OC[C@@]4(OC(C)=O)[C@H]4[C@H](OC(=O)c5ccccc5)[C@]5(O)C[C@H](OC(C)=O)C(C)=C([C@@H](OC(C)=O)C(=O)[C@]34C)C5(C)C)cc2)cc1 was tested. Which Reduction did it give?
Answer: 39%

Question: Which Reduction does the source give for COc1cccc(C(=O)Oc2ccc(/C=C/C(=O)O[C@H]3C[C@H]4OC[C@@]4(OC(C)=O)[C@H]4[C@H](OC(=O)c5ccccc5)[C@]5(O)C[C@H](OC(C)=O)C(C)=C([C@@H](OC(C)=O)C(=O)[C@]34C)C5(C)C)cc2)c1 here?
Answer: 34%

Question: With CC(=O)O[C@H]1C(=O)[C@]2(C)[C@@H](OC(=O)CCc3ccc(C(O)c4ccccc4)cc3)C[C@H]3OC[C@@]3(OC(C)=O)[C@H]2[C@H](OC(=O)c2ccccc2)[C@]2(O)C[C@H](OC(C)=O)C(C)=C1C2(C)C (stereo partly drawn) as the compound, how does the Reduction read?
Answer: 48%

Question: How did the Reduction turn out when CC(=O)O[C@H]1C(=O)[C@]2(C)[C@@H](OC(=O)/C=C/c3ccc4ccccc4c3)C[C@H]3OC[C@@]3(OC(C)=O)[C@H]2[C@H](OC(=O)c2ccccc2)[C@]23OC(=O)O[C@H]2[C@H](OC(C)=O)C(C)=C1C3(C)C was run?
Answer: 60%

Question: With CC(=O)O[C@H]1C(=O)[C@]2(C)[C@@H](OC(=O)COc3cccc4ccccc34)C[C@H]3OC[C@@]3(OC(C)=O)[C@H]2[C@H](OC(=O)c2ccccc2)[C@]2(O)C[C@H](OC(C)=O)C(C)=C1C2(C)C as the compound, how does the Reduction read?
Answer: 60%

Question: Which Reduction does the source give for CC(=O)O[C@H]1C[C@@]2(O)[C@@H](OC(=O)c3ccccc3)[C@@H]3[C@]4(OC(C)=O)CO[C@@H]4C[C@H](OC(C)=O)[C@@]3(C)C(=O)[C@H](OC(=O)/C=C/c3ccc(Oc4ccccc4)cc3)C(=C1C)C2(C)C here?
Answer: 29%

Question: How did the Reduction turn out when C=C(c1ccccc1)c1cccc(/C=C/C(=O)O[C@H]2C[C@H]3OC[C@@]3(OC(C)=O)[C@H]3[C@H](OCc4ccccc4)[C@]4(O)C[C@H](OC(C)=O)C(C)=C([C@@H](OC(C)=O)C(=O)[C@]23C)C4(C)C)c1 was run?
Answer: 52%
